The values that follow come from article PMC4453552 (mBio, 2015).

Read-outs that look alike come from different tables or passages of the source.

A word on the Kd: it is the free concentration of one partner at which half of the binding sites on the other are occupied at equilibrium, for simple one-to-one binding.

Assay [1] deals with T1, N-Flo1p (Saccharomyces cerevisiae, UniProt P32768).
T1 sequence (P32768 23-271): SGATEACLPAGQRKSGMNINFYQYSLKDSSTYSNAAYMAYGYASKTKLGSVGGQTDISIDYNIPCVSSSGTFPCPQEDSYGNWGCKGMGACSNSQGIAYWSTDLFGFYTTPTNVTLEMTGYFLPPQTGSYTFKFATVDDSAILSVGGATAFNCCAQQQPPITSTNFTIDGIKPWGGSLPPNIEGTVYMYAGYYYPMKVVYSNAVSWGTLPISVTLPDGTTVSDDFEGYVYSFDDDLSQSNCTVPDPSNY
In words: Fluorescence titration of carbohydrates with nonglycosylated N-Flo1p. The assay is classed as binding.

Assay [2] addresses T2, N-Lg-Flo1p (Saccharomyces pastorianus, UniProt B3IUB3, P58Q).
T2 sequence (B3IUB3 23-213 P58Q): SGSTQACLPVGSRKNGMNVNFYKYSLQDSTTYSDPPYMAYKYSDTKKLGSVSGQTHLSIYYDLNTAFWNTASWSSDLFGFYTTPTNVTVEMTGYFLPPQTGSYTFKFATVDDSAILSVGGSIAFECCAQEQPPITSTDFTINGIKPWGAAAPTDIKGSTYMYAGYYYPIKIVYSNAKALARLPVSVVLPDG
The assay can be described thus: Fluorescence titration of carbohydrates with N-Lg-Flo1p. The assay is classed as binding. Conditions: construct from the CBS1513 strain.

Assay [3] deals with T2, N-Lg-Flo1p. Conditions: cited from earlier work.
Another assay concerns N-Flo5p. Conditions: cited from earlier work.
Assay [4] has as its target T3, N-Flo1p (Saccharomyces cerevisiae, UniProt P32768).
T3 sequence (P32768 25-271 limits assumed): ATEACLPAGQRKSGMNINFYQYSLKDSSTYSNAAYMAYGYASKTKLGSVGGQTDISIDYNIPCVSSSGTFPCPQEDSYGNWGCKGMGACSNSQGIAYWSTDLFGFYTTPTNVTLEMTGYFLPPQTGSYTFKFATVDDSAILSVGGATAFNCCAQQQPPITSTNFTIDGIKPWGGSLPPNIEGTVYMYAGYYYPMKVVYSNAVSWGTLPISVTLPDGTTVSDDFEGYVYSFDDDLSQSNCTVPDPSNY
The assay can be described thus: AFM force spectroscopy of glycosylated N-Flo1p self-binding. Conditions: Tris solution with 20 mM EDTA and 100 mM mannose.

In assay [5] the target is T3, N-Flo1p. In words: N-Flo1p self-binding by surface plasmon resonance. Conditions: SPR, in the presence of Ca2+.
Where [6] appears, read: read-out: Equilibrium dissociation constant (KD) N-Flo1p, fluorescence titration, nonglycosylated N-Flo1p, this work (footnote a).

In turn, `OC[C@H]1OC(O)[C@@H](O)[C@@H](O)[C@@H]1O` (stereo partly drawn) [M (Man), D-mannose] showed a Kd at N-Flo1p [1] of 8.7 ± 0.43 mM. The “Affinity / interaction with N-Flo1p, in words” value is “low-millimolar range” on N-Flo1p [1] (fluorescence titration, listed as D-mannose) and “millimolar range” at N-Flo1p [1] (fluorescence titration, listed as mannose). Also, the “KD range for N-Lg-Flo1p, in words” value at N-Lg-Flo1p [2] was “high micromolar range”. Consider `O=P(O)(O)OC1O[C@H](CO)[C@@H](O)[C@H](O)[C@@H]1O` (some centres unmarked) [mannose-1-phosphate], for which, at N-Lg-Flo1p [3], the “Affinity for N-Lg-Flo1p, in words” value is reported as “micromolar-affinity”. As for `OC[C@H]1O[C@H](OC[C@H]2OC(O)[C@@H](O)[C@@H](O)[C@@H]2O)[C@@H](O)[C@@H](O)[C@@H]1O` (stereo partly drawn) [Mα-1,6-M, α-1,6-linked mannobiose], at N-Flo1p [1] (setting [6]), the dissociation constant Kd stood at 6.9 ± 0.64 mM. The “Binding to N-Flo5p, in words” value in the assay on N-Flo5p is reported as “No binding”.

For the molecule `O=C(O)CN(CCN(CC(=O)O)CC(=O)O)CC(=O)O` [EDTA], the “Effect on unbinding events of N-Flo1p self-binding” value at N-Flo1p [4] is on record as “longer-distance events disappeared almost completely”.

For `OC[C@H]1O[C@H](O[C@@H]2C(O)O[C@H](CO)[C@@H](O)[C@@H]2O)[C@@H](O)[C@@H](O)[C@@H]1O` (stereo partly drawn) [Mα-1,2-M, α-1,2-mannobiose], the “Fold difference in binding between the mono- and disaccharides (N-Flo1p)” value on N-Flo1p [1] (α-1,2-mannobiose versus D-mannose) turned out to be 10 fold.

For `OC[C@H]1O[C@H](O[C@H]2[C@H](O)[C@@H](CO)OC(O)[C@H]2O)[C@@H](O)[C@@H](O)[C@@H]1O` (stereo partly drawn) [Mα-1,3-M, α-1,3-linked mannobiose], the dissociation constant (Kd) at N-Flo1p [1] (setting [6]) worked out at 3.3 ± 0.34 mM. The “Binding to N-Flo5p, in words” value in the assay on N-Flo5p was “No binding”.

As for `OC[C@H]1OC(O)[C@H](O)[C@@H](O)[C@@H]1O` (some centres unmarked) [Glc, glucose], the “Affinity / interaction with N-Flo1p, in words” value at N-Flo1p [1] (fluorescence titration) is on record as “very weakly”. Moreover, the “Binding to N-Flo5p, in words” value in the assay with N-Flo5p is “very weakly”.

B1: N-deglycosylated N-Flo1p: N-Flo1p after removal of the N-glycans with endo-β-N-acetylglucosaminidase H (protein)
chain: T1 sequence (P32768 23-271)
modifications: N-glycans removed with EndoH (GlcNAc residues remain); O-glycans (5 or 6 mannoses) present
As for B1, in the assay with N-Flo1p [5], the “Binding of N-deglycosylated N-Flo1p to immobilized N-deglycosylated N-Flo1p” value is on record as “almost no binding”.
